In patent publication US8309552B2, “Immunomodulating heterocyclic compounds” (Medigene AG, priority 2003, dated 2012):
Like-named read-outs stand apart in the source and are kept apart here.

How the values were obtained:
[1] = molecular target: T1, Biotinylated human CD80 (hCD80-BT) (Homo sapiens, UniProt P33681); assay: BIAcore biomolecular interaction analysis, binding to immobilised hCD80-BT; set-up: off-rate on CD80: unit not given here; conditions: BIAcore S51, immobilised hCD80-BT
T1 construct: biotin (biotinylated)
T1 sequence (P33681 35-242 limits assumed): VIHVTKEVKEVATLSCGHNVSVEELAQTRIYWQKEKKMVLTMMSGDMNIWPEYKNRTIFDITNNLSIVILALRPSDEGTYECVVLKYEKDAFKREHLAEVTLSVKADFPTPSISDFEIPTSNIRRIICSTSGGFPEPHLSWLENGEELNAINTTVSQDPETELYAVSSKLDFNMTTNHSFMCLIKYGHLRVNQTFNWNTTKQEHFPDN
Source text: The Use of BIAcore Biomolecular Interaction Analysis
Biotinylated human CD80 (hCD80-BT) is a recombinant soluble form of a membrane bound receptor molecule (CD80) which binds to CD28 to initiate T cell activation. The interaction between CD80 and CD28 has been extensively investigated (Collins et al, 2002). Biotinlyated human HLA-A2-tax is the recombinant soluble form of a membrane bound receptor molecule that has been used in this example as a control protein, and is not expected to interact with the compounds.
The BIAcore S51™ system was used for screening the compounds of Examples 1-4 above. A series S sensor chip CM5 was docked onto the BIAcore S51™. Streptavidin was coupled to the carboxymethyl surface using standard amine coupling. The chip surface was activated with 0.2M EDC/0.05M NHS, followed by binding of streptavidin (0.25 mg/ml in 10 mM sodium acetate pH 5.0) and saturation of unoccupied sites with […].
The BIAcore S51 sensor chip has two separate sensor spots for immobilisation of proteins. hCD80-BT was immobilised on the streptavidin-coated surface of one sensor spot until a response of approximately 3000 RU was observed. A protein to control for non-specific binding of the compound was immobilised on a second sensor spot. The control protein used for these experiments was a biotinylated, soluble form of the human HLA protein.
Dilution series of compounds (1000 nM-0.05 nM) were prepared in running buffer (10 mM, pH 7.4, 150 mM NaCl, 0.005% P20; 5% DMSO).
BIAcore S51™ was run at a flow rate of 30 μl/min using running buffer. Compounds and DMSO standard solutions for correction of data for solvent effects were injected. Data were recorded automatically and were analysed using BIAcore S51 Evaluation software.

[2] = molecular target: T2, CD80-CD28 interaction (Homo sapiens, UniProt P33681); assay: Homogenous Time Resolved Fluorescence (HTRF) assay, cell free; format: binding; conditions: inhibition of the CD80-CD28 interaction, 4 hours at room temperature; read-out: EC50 activity in the HTRF assay
T2 sequence (P33681 35-242 limits assumed): T1 sequence (P33681 35-242 limits assumed)
Method in brief: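 Europium and APC labels were linked through antibodies to CD28 and CD80 fusion proteins. Compounds were tested at 100 μM-1.7 nM for 4 h at room temperature in 50 mM Tris-HCl, 150 mM NaCl pH7.8, 0.1% BSA. Emission read at 665 and 615 nm (excitation 340 nm); non-specific signal measured with C215 Fab in place of CD80; EC50 reported in bands.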

[3] = molecular target: T1, Biotinylated human CD80 (hCD80-BT); conditions: CD80/CD28 interaction, cited from earlier work
[4] = tested on: production of Interleukin-2 (IL-2) by Human Jurkat T Cells; assay: Inhibition of production of interleukin-2 (IL-2) by human Jurkat T cells (Raji/Jurkat co-culture, anti-CD3, IL-2 ELISA); format: cell-based; conditions: at 30 μM, read-out: inhibition of IL-2 production
Protocol: • Collins A V et al. (2002) Immunity 17, 201-210 “The interaction properties of costimulatory molecules revisited” Inhibition of Production of Interleukin-2 (IL-2) by Human Jurkat T Cells. Method
Human Raji cells were dispensed at a concentration of 2×10^5 cells per well in RPMI-1640 medium supplemented with 10% fetal calf serum, 1% penicillin/streptomycin, 1% glutamine (RPMI medium) in a 96-well round bottom microtitre plate. Compounds under investigation (dissolved in 100% DMSO) were diluted to eight-fold the desired final concentration in RPMI medium and added to the required final concentration for a total volume of 200 μl per well. After 20 minutes incubation at 37° C., Jurkat T cells were added at a concentration of 2×10^5 cells per well. Monoclonal antibody to CD3 (UCHT1, R&D Systems) was added to the cultures at a final concentration of 1 μg per ml, and where indicated, monoclonal antibody to CD28 (CD28.2, BD-Pharmingen) was also added at a concentration of 2.5 μg per ml. Cells were cultured at 37° C. for 5 hours, after which the plates were centrifuged and the supernatants harvested for IL-2 ELISA assay using the IL-2 Eli-pair kit (DIACLONE Research, Besancon, France) according to the manufacturers instructions.

Row | Compound | Kd [1] [µM] | off-rate on CD80 [1] | EC50 [2] [µM] | off-rate of CD80 interaction with endogenous protein ligand [3] | Kd ([3]; read-out: KD of CD80 interaction with endogenous protein ligand) [µM] | inhibition at 30 µM [4] [%]
1 | CD28: "the endogenous protein ligand (CD28)" of CD80; "CD28 on T-cells" |  |  |  | greater than 0.2 s^−1 | 4.75 | 
2 | O=C(NCc1ccccc1)c1ccc(-n2[nH]c3c(nnc4ccccc43)c2=O)cc1 [Example 3, N-benzyl-4-(3-oxo-1,3-dihydro-2H-pyrazolo[4,3-c]cinnolin-2-yl)benzamide] | < 0.1 | 2×10^−2 | < 1 |  |  | 
3 | CN(C)CCCNC(=O)c1ccc(-n2[nH]c3c(nnc4ccccc43)c2=O)cc1 [Example 2, N-[(dimethylamino)propyl]-4-(3-oxo-1,3-dihydro-2H-pyrazolo[4,3-c]cinnolin-2-yl)benzamide] | < 0.1 | 2×10^−2 | < 1 |  |  | 65

More lines, main results first:

Row | Kd [1] [µM] | off-rate on CD80 [1] | EC50 [2] [µM] | Compound | off-rate of CD80 interaction with endogenous protein ligand [3] | Kd ([3]; read-out: KD of CD80 interaction with endogenous protein ligand) [µM] | inhibition at 30 µM [4] [%]
4 | < 0.1 | 2×10^−2 | < 1 | O=C(NCCCCN1CCCC1)c1ccc(-n2[nH]c3c(nnc4c(F)cccc43)c2=O)cc1 [Example 6, 4-(6-fluoro-3-oxo-1,3-dihydro-2H-pyrazolo[4,3-c]cinnolin-2-yl)-N-(pyrrolidin-1-yl-butyl)benzamide] |  |  | 
5 | < 0.1 | 2×10^−2 | < 1 | O=C(NCCCNC1CCCCC1)c1ccc(-n2[nH]c3c(nnc4ccccc43)c2=O)cc1 [Example 4, N-[(cyclohexylamino)propyl]-4-(3-oxo-1,3-dihydro-2H-pyrazolo[4,3-c]cinnolin-2-yl)benzamide] |  |  | 
6 | < 0.1 | 2×10^−2 | < 1 | CN1C(C)(C)CC(NC(=O)c2ccc(-n3[nH]c4c(nnc5c(F)cccc54)c3=O)cc2)CC1(C)C [Example 7, 4-(6-fluoro-3-oxo-1,3-dihydro-2H-pyrazolo[4,3-c]cinnolin-2-yl)-n-(1,2,2,6,6-pentamethylpiperidine-4-yl)benzamide] |  |  | 
